Molecular target: T1, c-Met kinase (recombinant c-Met) (Homo sapiens, UniProt P08581)
T1 construct: 0.27 nM recombinant c-Met
Assay: In vitro kinase assay I (homogeneous time-resolved fluorescence tyrosine kinase assay)
Type: biochemical
Procedure, shortened: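 Biotinylated peptide (0.5 μM) phosphorylated by 0.2 nM recombinant c-Met with 50 μM MgATP, 60 min at room temperature, pH 7.4, 5% DMSO. EDTA stop; HTRF read with Eu-anti-phosphotyrosine antibody and streptavidin-APC. IC50 from 4-parameter logistic fit.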

T1 sequence (P08581 25-1390): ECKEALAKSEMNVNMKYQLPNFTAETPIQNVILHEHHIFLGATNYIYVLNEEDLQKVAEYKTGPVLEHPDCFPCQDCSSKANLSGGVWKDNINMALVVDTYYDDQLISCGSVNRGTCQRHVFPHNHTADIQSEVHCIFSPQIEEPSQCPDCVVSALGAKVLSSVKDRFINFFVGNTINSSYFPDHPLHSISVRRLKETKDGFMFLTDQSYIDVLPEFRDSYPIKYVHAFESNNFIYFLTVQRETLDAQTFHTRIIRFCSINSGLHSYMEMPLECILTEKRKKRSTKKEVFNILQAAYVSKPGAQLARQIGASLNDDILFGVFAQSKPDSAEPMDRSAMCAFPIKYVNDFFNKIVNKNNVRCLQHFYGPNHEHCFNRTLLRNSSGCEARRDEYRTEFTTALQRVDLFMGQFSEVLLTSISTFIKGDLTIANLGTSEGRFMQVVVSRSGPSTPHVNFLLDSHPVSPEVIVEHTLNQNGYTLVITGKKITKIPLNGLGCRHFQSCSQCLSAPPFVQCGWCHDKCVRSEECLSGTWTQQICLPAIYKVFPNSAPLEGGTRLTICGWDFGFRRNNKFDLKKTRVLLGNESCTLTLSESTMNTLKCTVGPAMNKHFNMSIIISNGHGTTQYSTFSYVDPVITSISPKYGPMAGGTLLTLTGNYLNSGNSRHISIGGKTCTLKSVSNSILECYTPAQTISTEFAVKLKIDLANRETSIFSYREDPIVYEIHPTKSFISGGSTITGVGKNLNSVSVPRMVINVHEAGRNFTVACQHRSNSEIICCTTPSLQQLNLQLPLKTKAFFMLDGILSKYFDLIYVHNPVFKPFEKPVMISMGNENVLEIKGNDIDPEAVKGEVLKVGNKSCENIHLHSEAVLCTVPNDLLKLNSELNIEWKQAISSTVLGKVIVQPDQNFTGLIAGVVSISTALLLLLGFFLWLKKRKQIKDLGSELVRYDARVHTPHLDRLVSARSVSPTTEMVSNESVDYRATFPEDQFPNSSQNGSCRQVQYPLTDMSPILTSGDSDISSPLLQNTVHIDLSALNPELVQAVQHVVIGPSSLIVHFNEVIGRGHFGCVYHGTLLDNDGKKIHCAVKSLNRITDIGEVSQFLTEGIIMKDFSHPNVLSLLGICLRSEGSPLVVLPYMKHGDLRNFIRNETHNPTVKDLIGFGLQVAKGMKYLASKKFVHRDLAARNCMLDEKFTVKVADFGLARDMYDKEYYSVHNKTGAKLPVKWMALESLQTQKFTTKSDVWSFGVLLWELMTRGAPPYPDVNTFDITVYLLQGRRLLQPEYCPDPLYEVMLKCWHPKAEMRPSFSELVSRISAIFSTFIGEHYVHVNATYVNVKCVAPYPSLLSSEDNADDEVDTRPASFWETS

Compared with CCOc1cnc2ccc(C(C)c3nn(-c4cnn(CC)c4)ccc3=O)cc2c1 (single isomer, unassigned) [Example 227, 3-[(1R or S)-1-(3-ethoxyquinolin-6-yl)ethyl]-1-(1-ethyl-1H-pyrazol-4-yl)pyridazin-4(1H)-one], CCOc1cnc(-c2cccc(C(C)c3nn(-c4cnn(CC)c4)ccc3=O)c2)nc1 (single isomer, unassigned) [Example 245, 3-{(1S or R)-1-[3-(5-ethoxypyrimidin-2-yl)phenyl]ethyl}-1-(1-ethyl-1H-pyrazol-4-yl)pyridazin-4(1H)-one] is higher in IC50: < 100 nM for the first, 100 to 1000 nM for the second. The first is the more potent here.

Compared with CCn1cc(-n2ccc(=O)c(C(C)c3cccc(-c4ncc(OCc5ccccc5)cn4)c3)n2)cn1 (single isomer, unassigned) [Example 228, 3-((1S or R)-1-{3-[5-(benzyloxy)pyrimidin-2-yl]phenyl}ethyl)-1-(1-ethyl-1H-pyrazol-4-yl)pyridazin-4(1H)-one], CCOc1cnc(-c2cccc(C(C)c3nn(-c4cnn(CC)c4)ccc3=O)c2)nc1 (single isomer, unassigned) [Example 246, 3-{(1R or S)-1-[3-(5-ethoxypyrimidin-2-yl)phenyl]ethyl}-1-(1-ethyl-1H-pyrazol-4-yl)pyridazin-4(1H)-one] is lower in IC50: 100 to 1000 nM for the first, < 100 nM for the second.

First: CCn1cc(-n2ccc(=O)c(C(C)c3cccc(-c4ncc(OCc5ccccc5)cn4)c3)n2)cn1 (single isomer, unassigned) [Example 229, 3-((1R or S)-1-{3-[5-(benzyloxy)pyrimidin-2-yl]phenyl}ethyl)-1-(1-ethyl-1H-pyrazol-4-yl)pyridazin-4(1H)-one]
Second: CCn1cc(-n2ccc(=O)c(C(C)c3cccc(-c4ncc(OCCOC)cn4)c3)n2)cn1 (single isomer, unassigned) [Example 247, 1-(1-ethyl-1H-pyrazol-4-yl)-3-((1S or R)-1-{3-[5-(2-methoxyethoxy)primidin-2-yl]phenyl}ethyl)pyridazin-4(1H)-one]
The IC50 of the first is lower: < 100 nM for the first, 100 to 1000 nM for the second.

CCc1cnc(-c2cccc(C(C)c3nn(-c4ccc(F)c(F)c4)ccc3=O)c2)nc1 (single isomer, unassigned) [Example 230, 1-(3,4-difluorophenyl)-3-{(1S or R)-1-[3-(5-ethylpyrimidin-2-yl)phenyl]ethyl}pyridazin-4(1H)-one] and CC(c1cccc(-c2ncc(OCC(C)(C)O)cn2)c1)c1nn(-c2ccc(F)c(F)c2)ccc1=O (single isomer, unassigned) [Example 249, 1-(3,4-difluorophenyl)-3-[(1S or R)-1-{3-[5-(2-hydroxy-2-methylpropoxy)pyrimidin-2-yl]phenyl}ethyl]pyridazin-4(1H)-one] fall in the same range of IC50: 100 to 1000 nM for the first, 100 to 1000 nM for the second.

CCc1cnc(-c2cccc(C(C)c3nn(-c4ccc(F)c(F)c4)ccc3=O)c2)nc1 (single isomer, unassigned) [Example 231, 1-(3,4-difluorophenyl)-3-{(1R or S)-1-[3-(5-ethylpyrimidin-2-yl)phenyl]ethyl}pyridazin-4(1H)-one] and CC(c1cccc(-c2ncc(OCC(C)(C)O)cn2)c1)c1nn(-c2ccc(F)c(F)c2)ccc1=O (single isomer, unassigned) [Example 250, 1-(3,4-difluorophenyl)-3-[(1R or S)-1-{3-[5-(2-hydroxy-2-methylpropoxy)pyrimidin-2-yl]phenyl}ethyl]pyridazin-4(1H)-one] cannot be ordered by IC50: < 100 nM for the first, < 100 nM for the second.

CC(c1cccc(-c2ncc(-c3cnn(C)c3)cn2)c1)c1nn(-c2cnn(C)c2)ccc1=O (single isomer, unassigned) [Example 232, 1-(1-methyl-1H-pyrazol-4-yl)-3-[(1S or R)-1-{3-[5-(1-methyl-1H-pyrazol-4-yl)pyrimidin-2-yl]phenyl}ethyl]pyridazin-4(1H)-one] and CCn1cc(-n2ccc(=O)c(C(C)c3cccc(-c4ncc(-c5cnn(C)c5)cn4)c3)n2)cn1 (single isomer, unassigned) [Example 234, 1-(1-ethyl-1H-pyrazol-4-yl)-3-[(1S or R)-1-{3-[5-(1-methyl-1H-pyrazol-4-yl)pyrimidin-2-yl]phenyl}ethyl]pyridazin-4(1H)-one] cannot be ordered by IC50: < 100 nM for the first, < 100 nM for the second.

CC(c1cccc(-c2ncc(-c3cnn(C)c3)cn2)c1)c1nn(-c2cnn(C)c2)ccc1=O (single isomer, unassigned) [Example 233, 1-(1-methyl-1H-pyrazol-4-yl)-3-[(1R or S)-1-{3-[5-(1-methyl-1H-pyrazol-4-yl)pyrimidin-2-yl]phenyl}ethyl]pyridazin-4(1H)-one] and CCn1cc(-n2ccc(=O)c(C(C)c3cccc(-c4ncc(-c5cnn(C)c5)cn4)c3)n2)cn1 (single isomer, unassigned) [Example 235, 1-(1-ethyl-1H-pyrazol-4-yl)-3-[(1R or S)-1-{3-[5-(1-methyl-1H-pyrazol-4-yl)pyrimidin-2-yl]phenyl}ethyl]pyridazin-4(1H)-one] cannot be ordered by IC50: < 100 nM for the first, < 100 nM for the second.

First: CCc1cnc(-c2cccc(C(C)c3nn(-c4cnn(C)c4)ccc3=O)c2)nc1 (single isomer, unassigned) [Example 236, 3-{(1S or R)-1-[3-(5-ethylpyrimidin-2-yl)phenyl]ethyl}-1-(1-methyl-1H-pyrazol-4-yl)pyridazin-4(1H)-one]
Second: CC(c1cccc(-c2ncc(Br)cn2)c1)c1nn(-c2cnn(C)c2)ccc1=O (single isomer, unassigned) [Example 241, 3-{(1S or R)-1-[3-(5-bromopyrimidin-2-yl)pheny]ethyl)}-1-(1-methyl-1H-pyrazol-4-yl)pyridazin-4(1H)-one]
The IC50 of the first is lower: < 100 nM for the first, 100 to 1000 nM for the second. The first is the more potent here.

CCc1cnc(-c2cccc(C(C)c3nn(-c4cnn(C)c4)ccc3=O)c2)nc1 (single isomer, unassigned) [Example 237, 3-{(1R or S)-1-[3-(5-ethylpyrimidin-2-yl)phenyl]ethyl}-1-(1-methyl-1H-pyrazol-4-yl)pyridazin-4(1H)-one] and CC(c1cccc(-c2ncc(Br)cn2)c1)c1nn(-c2cnn(C)c2)ccc1=O (single isomer, unassigned) [Example 242, 3-{(1R or S)-1-[3-(5-bromopyrimidin-2-yl)phenyl]ethyl}-1-(1-methyl-1H-pyrazol-4-yl)pyridazin-4(1H)-one] cannot be ordered by IC50: < 100 nM for the first, < 100 nM for the second.

First: CC(c1cccc(-c2ncc(-c3cnn(C)c3)cn2)c1)c1nn(-c2ccc(F)c(F)c2)ccc1=O (single isomer, unassigned) [Example 238, 1-(3,4-difluorophenyl)-3-[(1S or R)-1-{3-[5-(1-methyl-1H-pyrazol-4-yl)pyrimidin-2-yl]phenyl}ethyl]pyridazin-4(1H)-one]
Second: COC(C)(C)COc1cnc(-c2cccc(C(C)c3nn(-c4ccc(F)c(F)c4)ccc3=O)c2)nc1 (single isomer, unassigned) [Example 251, 1-(3,4-difluorophenyl)-3-[(1S or R)-1-{3-[5-(2-methoxy-2-methylpropoxy)pyrimidin-2-yl]phenyl}ethyl]pyridazin-4(1H)-one]
The IC50 of the first is higher: 100 to 1000 nM for the first, < 100 nM for the second.

CC(c1cccc(-c2ncc(-c3cnn(C)c3)cn2)c1)c1nn(-c2ccc(F)c(F)c2)ccc1=O (single isomer, unassigned) [Example 239, 1-(3,4-difluorophenyl)-3-[(1R or S)-1-{3-[5-(1-methyl-1H-pyrazol-4-yl)pyrimidin-2-yl]phenyl}ethyl]pyridazin-4(1H)-one] and COC(C)(C)COc1cnc(-c2cccc(C(C)c3nn(-c4ccc(F)c(F)c4)ccc3=O)c2)nc1 (single isomer, unassigned) [Example 252, 1-(3,4-difluorophenyl)-3-[(1R or S)-1-{3-[5-(2-methoxy-2-methylpropoxy)pyrimidin-2-yl]phenyl}ethyl]pyridazin-4(1H)-one] cannot be ordered by IC50: < 100 nM for the first, < 100 nM for the second.

First: CC(c1cccc(-c2ncc(-n3cnnc3)cn2)c1)c1nn(-c2cnn(C)c2)ccc1=O (single isomer, unassigned) [Example 240, 1-(1-methyl-1H-pyrazol-4-yl)-3-[(1R or S)-1-{3-[5-(4H-1,2,4-triazol-4-yl)pyrimidin-2-yl]phenyl}ethyl]pyridazin-4(1H)-one]
Second: CC(c1cccc(-c2ncc(N3CCOCC3)cn2)c1)c1nn(-c2cnn(C)c2)ccc1=O (single isomer, unassigned) [Example 243, 1,1-methyl-1H-pyrazol-4-yl)-3-{(1S or R)-1-[3-(5-morpholin-4-ylpyrimidin-2-yl)phenyl]ethyl}pyridazin-4(1H) one]
The IC50 of the first is higher: 100 to 1000 nM for the first, < 100 nM for the second. The second is the more potent here.

First: CC(c1cccc(-c2ncc(N3CCOCC3)cn2)c1)c1nn(-c2cnn(C)c2)ccc1=O (single isomer, unassigned) [Example 244, 1-(1-methyl-1H-pyrazol-4-yl)-3-{(1R or S)-1-[3-(5-morpholin-4-ylpyrimidin-2-yl)phenyl]ethyl}pyridazin-4(1H)-one]
Second: CCn1cc(-n2ccc(=O)c(C(C)c3cccc(-c4ncc(O)cn4)c3)n2)cn1 (single isomer, unassigned) [Example 257, 1-(1-ethyl-1H-pyrazol-4-yl)-3-{(1S or R)-1-[3-(5-hydroxypyrimidin-2-yl)phenyl]ethyl}pyridazin-4(1H)-one]
The IC50 of the first is lower: 100 to 1000 nM for the first, 1000 to 3000 nM for the second. The first is the more potent here.

Compared with CCn1cc(-n2ccc(=O)c(C(C)c3cccc(-c4ncc(OCCOC)cn4)c3)n2)cn1 (single isomer, unassigned) [Example 248, 1-(1-ethyl-1H-pyrazol-4-yl)-3-((1R or S)-1-{3-[5-(2-methoxyethoxy)pyrimidin-2-yl]phenyl}ethyl)pyridazin-4(1H)-one], CCOc1cnc(-c2cccc(C(C)c3nn(-c4cnn(CCO)c4)ccc3=O)c2)nc1 (single isomer, unassigned) [Example 255, 3-{(1S or R)-1-[3-(5-Ethoxypyrimidin-2-yl)phenyl]ethyl}-1-[1-(2-hydroxyethyl)-1H-pyrazol-4-yl]pyridazin-4(1H)-one] is higher in IC50: < 100 nM for the first, 100 to 1000 nM for the second. The first is the more potent here.

CCOc1cnc(-c2cccc(C(C)c3nn(-c4cnn(CCO)c4)ccc3=O)c2)nc1 (single isomer, unassigned) [Example 256, 3-{(1R or S)-1-[3-(5-ethoxypyrimidin-2-yl)phenyl]ethyl}-1-[1-(2-hydroxyethyl)-1H-pyrazol-4-yl]pyridazin-4(1H)-one] was tested, and the IC50 was < 100 nM.
